# Experimental data as given in US20260174878A1, “IRAK4 DEGRADATION AGENT AND USE THEREOF” (LEADINGTAC PHARMACEUTICAL (SHAOXING) CO., LTD., priority 2022, published 2026).
# Experiments:
# [1] = target: T1, IRAK4 protein in normal human PBMCs (Homo sapiens, UniProt Q9NWZ3); test: Degradation of IRAK4 protein in normal human PBMCs (AlphaLISA); format: cell-based; settings: 24 h incubation
# T1 construct: host or cells: normal human PBMCs
# T1 sequence (Q9NWZ3 1-460): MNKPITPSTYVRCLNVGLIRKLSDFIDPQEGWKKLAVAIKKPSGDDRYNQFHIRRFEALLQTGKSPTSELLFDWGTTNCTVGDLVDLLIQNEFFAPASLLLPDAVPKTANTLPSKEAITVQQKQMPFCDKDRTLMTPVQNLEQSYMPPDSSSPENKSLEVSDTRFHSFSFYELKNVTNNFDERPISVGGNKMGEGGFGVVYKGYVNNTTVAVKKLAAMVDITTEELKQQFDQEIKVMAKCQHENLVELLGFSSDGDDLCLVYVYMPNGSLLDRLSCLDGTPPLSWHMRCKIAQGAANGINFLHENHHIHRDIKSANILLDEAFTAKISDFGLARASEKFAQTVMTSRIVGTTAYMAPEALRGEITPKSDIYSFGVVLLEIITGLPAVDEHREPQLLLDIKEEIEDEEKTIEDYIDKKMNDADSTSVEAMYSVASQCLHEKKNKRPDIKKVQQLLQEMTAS
# Summary of the method: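 Cryopreserved normal human PBMCs treated with compound at 0.01-3000 nM (0.25% DMSO) for 24 h at 37 °C. IRAK4 in lysates quantified by AlphaLISA against a standard curve and normalized to BCA total protein. Degradation versus control fitted to give DC50 and Dmax.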
# IRAK4 kinase = target: T2, IRAK4 kinase (Homo sapiens, UniProt Q9NWZ3); test: IRAK4 kinase activity test (KinEASE-STK S1 HTRF kit); format: biochemical; settings: IRAK4 kinase 2.5 nM, 7 μM adenosine triphosphate, 37° C. 120 min
# T2 construct: purchased Carna
# T2 sequence (Q9NWZ3 1-460): T1 sequence (Q9NWZ3 1-460)
# Procedure: Then 2.5 nM IRAK4 kinase (Carna), 1 μM biotinylated polypeptide substrate (Cisbio), and 7 μM adenosine triphosphate (Sigma-Aldrich) were sequentially added, and the mixtures were incubated at 37° C. for 120 min. Subsequently, an anti-phosphoserine/threonine antibody (Cisbio) conjugated with a europium element compound and streptavidin conjugated with a modified XL665 (Cisbio) were added to the reaction system to stop the reaction. After 1 h of incubation at room temperature, the fluorescence intensity of each well was measured at the excitation wavelength of 337 nm and the emission wavelengths of 620 nm and 665 nm with a microplate reader EnVision (PerkinElmer) in the HTRF mode, and Ratio values were calculated using the formula: Ratio=(665 nm/620 nm)×10^4. The inhibition rates of the compounds at each concentration were calculated by comparison with the fluorescence intensity ratio of the control group. Then non-linear curve fittings for logarithmic concentration-inhibition rate were performed using GraphPad Prism 7, and the IC50 values of the compounds were obtained.
# [2] = tested on: imiquimod-induced mouse psoriasis model; test: Imiquimod-induced C57 mouse psoriasis model; format: in vivo, C57BL/6 mice; settings: p<0.0001
# Procedure: Then 10% of the total volume of Solutol was added, and the mixture was subjected to vortex ultrasonic treatment until clear. […] The compound was formulated fresh for each use.
# B. Imiquimod sensitization and drug intervention on C57BL/6J mice were conducted, with specific administration times shown in Table 6. • i. On Day 1, the backs of the mice were shaved, ensuring consistent area using a mold, approximately 2 cm×3 cm, and 60 mice were selected; • ii. the mice were randomly divided into 6 groups based on body weight and right ear thickness, with 10 mice per group; • iii. 6 to induce psoriasis symptoms in the model mice, imiquimod was applied on the back skin and right ear of the mice in groups G2-G6 for sensitization at noon on Day 0, and this continued for 7 days. • iv. […] Endpoint sampling of the mice was performed on Day 5 or Day 7.
# • Clinical score and right ear thickness.
smiles,measurement,setting,value
COc1cc2nn([C@H]3CC[C@@](COCCC4CCN(C(=O)c5ccc(Cl)c(N6CCC(=O)NC6=O)c5)CC4)(OC)CC3)cc2cc1NC(=O)c1cccc(C(F)(F)F)n1 [Example 36],DC50,[1],2.03 nM
same,Dmax,[1],98.6%
same,IC50,IRAK4 kinase,9.29 nM
C=C1/C(=C\C=C2/CCC[C@]3(C)[C@@H]([C@H](C)CCCC(C)(C)O)CC[C@@H]23)C[C@@H](O)C[C@@H]1O [calcitriol],inhibition rate relative to vehicle control (AUC of clinical score),[2]; ointment 75 mg back + 24 mg right ear/mouse topical QD,44.5%
"CC(=O)OCC(=O)[C@@]1(O)[C@H](C)C[C@H]2[C@@H]3CCC4=CC(=O)C=C[C@]4(C)[C@@]3(F)[C@@H](O)C[C@@]21C [dexamethasone, Dexamethasone acetate]",inhibition rate relative to vehicle control (AUC of clinical score),[2]; 5 mpk p.o. QD,20.7%
